# Entries after “also recorded” stand apart in the source; their conditions may differ.
# Assays:
# [1] = test system: erythroleukaemia cell line HEL (JAK2V617F-positive); test: MTT assay, metabolic activity of HEL cells; format: cell-based; settings: 72 h; for effect on metabolic activity of HEL cells (in words): concentrations up to 20 μM
# Method: (§1) All studies with the HEL, Molm-14 and K562 cell lines mentioned (sourced from DSMZ: ACC-11, ACC-10 and ACC-777) were conducted under germ-free conditions under a sterile hood. Incubation was effected at 37° C. in an incubator at a CO2 saturation of 5%. For the passage of the suspension cells, the cells were transferred in a Falcon prefilled with PBS (phosphate buffered saline) and centrifuged at 1200 rpm for 5 min. All three cell lines were cultured in RPMI-1640 medium (Gibco, Thermo Fischer Scientific, Darmstadt, Germany) with 10% FCS and 1% penicillin streptomycin.
# (§2) The viability and metabolic activity of the cells were measured by the MTT assay. Yellow, water-soluble MTT (3-([…])-2,5-diphenyltetrazolium bromide) is a tetrazolium salt which is reduced to dark blue formazan in living cells. Insoluble formazan is released by addition of isopropanol-HCl, and its intensity can be determined by photometry at a wavelength of 550 nm. Thus, the proportion of living cells is measured by comparison with a particular control sample. The cells were counted and washed with PBS, and 30 000 cells per well were sown in triplicates in a 96-well plate. For the inhibitor treatment, the stated final concentrations were used. For this purpose, 10 µl of the appropriate inhibitor dilution was introduced into the 96-well plates, and then 90 μl of cell suspension was pipetted in. The plates were incubated in an incubator for 72 h (37° C., 5% CO2). After the incubation, 10 μl of MTT solution (5 mg/ml) was applied to the wells with a multichannel pipette and thoroughly resuspended. This was followed by incubation for 4 h in the dark at room temperature. Subsequently, the cells were resuspended in 100 μl of isopropanol-HCl and lysed, and absorption at a wavelength of 550 nm was measured by photometry with a plate reader (Kayto, RT-2100C).
# (§3) The erythroleukaemia cell line HEL (JAK2V617F-positive), the AML cell line Molm-14 and the chronic myeloid leukaemia (CML) cell line K562 (BCR-ABL-positive) were used for cell experiments.
# (§4) Compounds MF1-R, MF1-S, JHS1-R and JHS1-S were dissolved in DMSO, and each was used in concentrations of 0.1 μM, 1 μM, 10 μM and 20 μM. Correspondingly, DMSO was included in each case as a control treatment, and the metabolic activity thereof was set to 100%. The HEL, Molm-14 and K562 cell lines were treated with the respective compounds in the different concentrations and, after 72 h in culture, the metabolic activity, which gives information about the growth of the cells, was determined by means of MTT [3-(4,5-dimethylthiazol-2-yl)-2,5-diphenyltetrazolium bromide] assay.
# AML cell line Molm-14 = test: MTT assay, metabolic activity of Molm-14 cells; format: cell-based; settings: 72 h; for effect on metabolic activity of Molm-14 cells (in words): concentrations up to 20 μM
# Method: as §1, §2, §3, §4
# [2] = test system: PBMC or CD34+ cells from healthy donors; test: CFU assay, healthy controls; format: cell-based, human
# Method: With the aid of the CFU assay, it is possible to determine the colony-forming capacity of individual cells in a semisolid methylcellulose medium (MethoCult H4434, StemCell Technologies, Cologne, Germany). The number of colonies was determined after 7-11 days.
# CD34+ cells (G-CSF mobilized from stem cell donors) from healthy donors: 2×10^4 cells/ml; PBMCs from the healthy subjects: 4×10^5 cells/ml.
# For this purpose, mononuclear cells (PBMC: mononuclear cells from peripheral blood) or CD34-positive stem cells (CD34+ cells) were isolated from the blood of four healthy controls and three AML or MPN patients and introduced into semisolid medium, to each of which 1 μM or 5 μM of MFS-2 or PFI-1 have been added. Individual cells in the CFU assay form cell colonies in culture after 12 days, unless the formation thereof is prevented by inhibitors.
# [3] = test system: proteins from the BET family; test: Thermal shift assay (BromoMELT assay), BET family; format: binding; settings: 10 μM, duplicates, versus DMSO control; apart from BRDT-2
# Method: (§5) The experiment was conducted in duplicates at a concentration of 10 μM.
# BRD2 = test: Thermal shift assay (BromoMELT assay), BRD2; format: binding; settings: 10 μM, duplicates, versus DMSO control
# Method: as §5
# [4] = test system: haematopoietic cell lines, erythroleukaemia and AML cell lines; test: Inhibitory activity in haematopoietic cell lines (summary statements); format: cell-based; settings: for activity relative to PFI-1 in haematopoietic cell lines: racemic mixtures of MF1, MF2, achiral MF3
# Method: as §1, §2
SMILES,effect on metabolic activity of HEL cells (in words) [1],effect on metabolic activity of Molm-14 cells (in words) (AML cell line Molm-14),inhibitory activity in haematopoietic / leukaemia cell lines (in words) [4],also measured
"COc1ccccc1S(=O)(=O)Nc1ccc2c(c1)CN(C)C(=O)N2 [PFI-1, reference compound]",,,,"metabolic activity of HEL cells ([1]; 1 μM, DMSO control set to 100%): 72.95%±12.7; metabolic activity of Molm-14 cells (AML cell line Molm-14; 1 μM, DMSO control set to 100%): 80.43%±1.324; colony count, healthy CD34+ controls 3 and 4 ([2]; 1 μM): reduced the colony count of the controls to a lesser degree; colony count, healthy controls 1 (PBMC) and 2 (CD34+ cells) ([2]; 5 μM): likewise reduced the amount of colonies; binding of BET family proteins (ΔTm, in words) [3]: specifically bind proteins of the BET family; binding of BRD2 (ΔTm, in words) (BRD2): stronger binding of BRD2"
"CN1Cc2cc(N=[S@](C)(=Nc3ccccc3)c3ccccc3)ccc2NC1=O [JHS1-S, (S)—N-(3-methyl-2-oxo-1,2,3,4-tetrahydroquinazolin-6-yl)-N-phenyl-S-methyl-S-phenylsulfonediimide]",comparable effect on the metabolic activity,comparable effect on the metabolic activity,,
"CN=S(C)(=Nc1ccc2c(c1)CN(C)C(=O)N2)c1ccccc1 (racemic) [JHS3, rac-N-(3-methyl-2-oxo-1,2,3,4-tetrahydroquinazolin-6-yl)-N-methyl-S-methyl-S-phenylsulfonediimide]",inactive,inactive,minor inhibitory activity,
"COc1ccccc1[S@@](C)(=O)=Nc1ccc2c(c1)CN(C)C(=O)N2 [MF1-R, (R)—N-(3-methyl-2-oxo-1,2,3,4-tetrahydroquinazolin-6-yl)-S-(2-methoxyphenyl)-S-methylsulfoximine]",virtually inactive,virtually inactive,minor inhibitory effect,
"CN1Cc2cc(N=S(C)(=O)c3ccccc3)ccc2NC1=O (racemic) [MF2, rac-N-(3-methyl-2-oxo-1,2,3,4-tetrahydroquinazolin-6-yl)-S-methyl-S-phenylsulfoximine]",reduced the metabolic activity of HEL and Molm-14 cells at concentrations of 10 and 20 μM,reduced the metabolic activity of HEL and Molm-14 cells at concentrations of 10 and 20 μM,marked inhibitory activity,activity relative to PFI-1 in haematopoietic cell lines [4]: at a comparable level to PFI-1
"CN1Cc2cc(N=S(C)(=Nc3ccccc3)c3ccccc3)ccc2NC1=O (racemic) [JHS1, rac-N-(3-methyl-2-oxo-1,2,3,4-tetrahydroquinazolin-6-yl)-N-phenyl-S-methyl-S-phenylsulfonediimide]",reduced the metabolic activity of HEL and Molm-14 cells at concentrations of 10 and 20 μM; also recorded: achieved inhibition of the metabolic activity of HEL and Molm-14 cells at concentrations of 10 and 20 μM,reduced the metabolic activity of HEL and Molm-14 cells at concentrations of 10 and 20 μM; also recorded: achieved inhibition of the metabolic activity of HEL and Molm-14 cells at concentrations of 10 and 20 μM,,
"CN1Cc2cc(N=S(=O)(c3ccccc3)c3ccccc3)ccc2NC1=O [MF3, N-(3-methyl-2-oxo-1,2,3,4-tetrahydroquinazolin-6-yl)-S,S-diphenylsulfoximine]",,,marked inhibitory activity,activity relative to PFI-1 in haematopoietic cell lines [4]: at a comparable level to PFI-1
"COc1ccccc1[S@](C)(=O)=Nc1ccc2c(c1)CN(C)C(=O)N2 [MF1-S, (S)—N-(3-methyl-2-oxo-1,2,3,4-tetrahydroquinazolin-6-yl)-S-(2-methoxyphenyl)-S-methylsulfoximine]",comparable effect on the metabolic activity of HEL and Molm-14 cells to PFI-1,comparable effect on the metabolic activity of HEL and Molm-14 cells to PFI-1,,
"CN1Cc2cc(N=[S@@](C)(=Nc3ccccc3)c3ccccc3)ccc2NC1=O [JHS1-R, (R)—N-(3-methyl-2-oxo-1,2,3,4-tetrahydroquinazolin-6-yl)-N′-phenyl-S-methyl-S-phenylsulfonediimide]",,,almost the same level of inhibitory action,
"CN1Cc2cc(N=S(C)(=N)c3ccccc3)ccc2NC1=O (racemic) [JHS2, rac-N-(3-methyl-2-oxo-1,2,3,4-tetrahydroquinazolin-6-yl)-N′—H—S-methyl-S-phenylsulfonediimide]",inactive,inactive,minor inhibitory activity,
"CN1Cc2cc(N=[S@](C)(=O)c3ccccc3)ccc2NC1=O [MF2-R, (R)—N-(3-methyl-2-oxo-1,2,3,4-tetrahydroquinazolin-6-yl)-S-Methyl-S-Phenylsulfoximine]",lost inhibitory activity compared to MF2,lost inhibitory activity compared to MF2,showed inhibition of the cell proliferation of leukaemia cell lines,
"COc1ccccc1S(C)(=O)=Nc1ccc2c(c1)CN(C)C(=O)N2 (racemic) [MF1, rac-N-(3-methyl-2-oxo-1,2,3,4-tetrahydroquinazolin-6-yl)-S-(2-methoxyphenyl)-S-methylsulfoximine]",,,marked inhibitory activity; also recorded: showed inhibitory activity,activity relative to PFI-1 in haematopoietic cell lines [4]: at a comparable level to PFI-1
